Test results reported in the NIST ThermoML archive (doi:10.1021/acs.jced.6b00718).

Assay: xn = mol fraction of the nth substance listed
Conditions: Liquid; for electrical conductivity: 100 kPa, Alternating current cell with electrodes, x2 = 0.2589; for viscosity / mass density: 101 kPa; for viscosity: Falling or rolling sphere viscometry; for mass density: Vibrating tube method

N#CCCCC#N [pentanedinitrile] + CCCC[N+]1(C)CCCC1.O=S(=O)([N-]S(=O)(=O)C(F)(F)F)C(F)(F)F
Conditions | electrical conductivity [S/m]
292.9 K | 0.572
297.4 K | 0.651
304.3 K | 0.782
314.5 K | 1
323.2 K | 1.21
336 K | 1.55

Conditions | mass density [kg/m3] | viscosity [mPa·s]
293.15 K, x2 = 0 | 987 | 6.97
293.15 K, x2 = 0.1003 | 1094.2 | 9.92
293.15 K, x2 = 0.1997 | 1167.5 | 13.34
293.15 K, x2 = 0.2999 | 1222.5 | 17.57
293.15 K, x2 = 0.4002 | 1266.7 | 22.88
293.15 K, x2 = 0.5006 | 1300.5 | 28.92
293.15 K, x2 = 0.6003 | 1327.5 | 38.47
293.15 K, x2 = 0.6998 | 1349.1 | 48.33
293.15 K, x2 = 0.8004 | 1368.5 | 61.37
293.15 K, x2 = 0.9002 | 1385.4 | 78.19
298.15 K, x2 = 0 | 983.1 | 6.12
298.15 K, x2 = 0.1003 | 1090.3 | 8.55
298.15 K, x2 = 0.1997 | 1163.3 | 11.42
298.15 K, x2 = 0.2999 | 1218.1 | 14.81
298.15 K, x2 = 0.4002 | 1262.2 | 19.17
298.15 K, x2 = 0.5006 | 1296.1 | 23.95
298.15 K, x2 = 0.6003 | 1323.1 | 31.5
298.15 K, x2 = 0.6998 | 1344.8 | 39.56
298.15 K, x2 = 0.8004 | 1364.3 | 49.4
298.15 K, x2 = 0.9002 | 1380.9 | 62.15
303.15 K, x2 = 0 | 979.1 | 5.39
303.15 K, x2 = 0.1003 | 1086.2 | 7.42
303.15 K, x2 = 0.1997 | 1159 | 9.83
303.15 K, x2 = 0.2999 | 1213.8 | 12.69
303.15 K, x2 = 0.4002 | 1257.9 | 16.22
303.15 K, x2 = 0.5006 | 1291.7 | 20.1
303.15 K, x2 = 0.6003 | 1318.6 | 26.13
303.15 K, x2 = 0.6998 | 1340.3 | 32.56
303.15 K, x2 = 0.8004 | 1359.8 | 40.38
303.15 K, x2 = 0.9002 | 1376.4 | 50.27
313.15 K, x2 = 0 | 971.2 | 4.25
313.15 K, x2 = 0.1003 | 1077.9 | 5.78
313.15 K, x2 = 0.1997 | 1150.5 | 7.46
313.15 K, x2 = 0.2999 | 1205.1 | 9.52
313.15 K, x2 = 0.4002 | 1249 | 11.97
313.15 K, x2 = 0.5006 | 1282.8 | 14.66
313.15 K, x2 = 0.6003 | 1309.7 | 18.67
313.15 K, x2 = 0.6998 | 1331.3 | 22.97
313.15 K, x2 = 0.8004 | 1350.8 | 28.01
313.15 K, x2 = 0.9002 | 1367.2 | 34.37
323.15 K, x2 = 0 | 963.4 | 3.47
323.15 K, x2 = 0.1003 | 1069.7 | 4.6
323.15 K, x2 = 0.1997 | 1142 | 5.84
323.15 K, x2 = 0.2999 | 1196.5 | 7.39
323.15 K, x2 = 0.4002 | 1240.3 | 9.16
323.15 K, x2 = 0.5006 | 1274 | 11.11
323.15 K, x2 = 0.6003 | 1300.9 | 13.88
323.15 K, x2 = 0.6998 | 1322.5 | 16.93
323.15 K, x2 = 0.8004 | 1342 | 18.72
323.15 K, x2 = 0.9002 | 1358.2 | 24.65
333.15 K, x2 = 0 | 955.6 | 2.88
333.15 K, x2 = 0.1003 | 1061.5 | 3.72
333.15 K, x2 = 0.1997 | 1133.7 | 4.71
333.15 K, x2 = 0.2999 | 1188 | 5.85
333.15 K, x2 = 0.4002 | 1231.7 | 7.27
333.15 K, x2 = 0.5006 | 1265.2 | 8.67
333.15 K, x2 = 0.6003 | 1291.9 | 10.69
333.15 K, x2 = 0.6998 | 1313.8 | 13.01
333.15 K, x2 = 0.8004 | 1333 | 14.2
333.15 K, x2 = 0.9002 | – | 18.39
